From the supplement of paper PMC10307832 come the findings set out here.

What all share (test): relative viability (nuclei count vs DMSO), 5 days (fraction); higher = more cells survive
Compound in the test “AZ505 + Foretinib”: C1CCC(CC1)N(CCNCCC2=C3C(=C(C=C2)O)NC(=O)CO3)C(=O)CCNCCC4=CC(=C(C=C4)Cl)Cl [AZ505] + COc1cc2c(Oc3ccc(NC(=O)C4(C(=O)Nc5ccc(F)cc5)CC4)cc3F)ccnc2cc1OCCCN1CCOCC1 [Foretinib] (partner 0.25 µM)
The gist of the method: (§1)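 Lung cancer cell lines were seeded in 1536-well plates and dosed by pin tool the next day, with either a single drug or a fixed anchor-drug dose combined with five library-drug doses (not always all listed) spaced in √10 steps. Five days later, one step fixed the cells and stained their nuclei (final 0.05% Triton X-100, 1% formaldehyde, 1 ug/ml Hoechst), and nuclei were counted on 4× images. Relative viability is the nuclei count in treated wells divided by the count in vehicle wells, and each value is the median of duplicate plates.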

Compound in the test “AZ505 + Decitabine”: C1CCC(CC1)N(CCNCCC2=C3C(=C(C=C2)O)NC(=O)CO3)C(=O)CCNCCC4=CC(=C(C=C4)Cl)Cl [AZ505] + Nc1ncn([C@H]2C[C@H](O)[C@@H](CO)O2)c(=O)n1 [Decitabine] (partner 2 µM)
The gist of the method: as §1

Compound in the test “Dactolisib + Decitabine”: Cn1c(=O)n(-c2ccc(C(C)(C)C#N)cc2)c2c3cc(-c4cnc5ccccc5c4)ccc3ncc21 [Dactolisib] + Nc1ncn([C@H]2C[C@H](O)[C@@H](CO)O2)c(=O)n1 [Decitabine] (partner 2 µM)
Put shortly:
as §1

Compound in the test “Dactolisib + Navitoclax”: Cn1c(=O)n(-c2ccc(C(C)(C)C#N)cc2)c2c3cc(-c4cnc5ccccc5c4)ccc3ncc21 [Dactolisib] + CC1(C)CCC(c2ccc(Cl)cc2)=C(CN2CCN(c3ccc(C(=O)NS(=O)(=O)c4ccc(N[C@H](CCN5CCOCC5)CSc5ccccc5)c(S(=O)(=O)C(F)(F)F)c4)cc3)CC2)C1 [Navitoclax] (partner 0.5 µM)
The gist of the method:
as §1

With NCI-H1437, the relative viability stood at 1.16 with AZ505 + Foretinib (first compound 0.08 µM); 1.26 with AZ505 + Foretinib (first compound 0.253 µM); 1.21 in the test with AZ505 + Foretinib (first compound 0.8 µM); 1.29 with AZ505 + Foretinib (first compound 2.53 µM); 1.18 with AZ505 + Foretinib (first compound 8 µM); 0.574 with AZ505 + Decitabine (first compound 0.08 µM). For the same cell line, the relative viability is 0.571 with AZ505 + Decitabine (first compound 0.253 µM); 0.62 with AZ505 + Decitabine (first compound 0.8 µM); 0.625 with AZ505 + Decitabine (first compound 2.53 µM); 0.555 in the test with AZ505 + Decitabine (first compound 8 µM); 0.716 in the test with Dactolisib + Decitabine (first compound 0.002 µM); 0.551 with Dactolisib + Decitabine (first compound 0.006325 µM). Besides, the relative viability is 0.676 in the test with Dactolisib + Decitabine (first compound 0.02 µM); 0.569 with Dactolisib + Decitabine (first compound 0.06325 µM); 0.482 with Dactolisib + Decitabine (first compound 0.2 µM); 1.2 with Dactolisib + Navitoclax (first compound 0.002 µM); 1.07 with Dactolisib + Navitoclax (first compound 0.006325 µM); 1.07 in the test with Dactolisib + Navitoclax (first compound 0.02 µM). The relative viability with Dactolisib + Navitoclax (first compound 0.06325 µM) amounted to 0.967; in the test with Dactolisib + Navitoclax (first compound 0.2 µM) it was 0.837.

As to SW 1573, the relative viability with AZ505 + Foretinib (first compound 0.08 µM) stood at 0.873; with AZ505 + Foretinib (first compound 0.253 µM) it was 0.993; in the test with AZ505 + Foretinib (first compound 0.8 µM), 0.918; in the test with AZ505 + Foretinib (first compound 2.53 µM), 0.817; in the test with AZ505 + Foretinib (first compound 8 µM), 0.959; with AZ505 + Decitabine (first compound 0.08 µM), 0.517. Also, the relative viability is 0.63 in the test with AZ505 + Decitabine (first compound 0.253 µM); 0.569 in the test with AZ505 + Decitabine (first compound 0.8 µM); 0.476 with AZ505 + Decitabine (first compound 2.53 µM); 0.501 with AZ505 + Decitabine (first compound 8 µM); 0.556 in the test with Dactolisib + Decitabine (first compound 0.002 µM); 0.336 with Dactolisib + Decitabine (first compound 0.006325 µM). Also, the relative viability with Dactolisib + Decitabine (first compound 0.02 µM) is 0.299; with Dactolisib + Decitabine (first compound 0.06325 µM), 0.185; with Dactolisib + Decitabine (first compound 0.2 µM) it was 0.149; with Dactolisib + Navitoclax (first compound 0.002 µM) it was 1.09; with Dactolisib + Navitoclax (first compound 0.006325 µM), 0.866; with Dactolisib + Navitoclax (first compound 0.02 µM), 0.775. The relative viability with Dactolisib + Navitoclax (first compound 0.06325 µM) is 0.252; with Dactolisib + Navitoclax (first compound 0.2 µM) it was 0.294.

Regarding H3255, the relative viability with AZ505 + Foretinib (first compound 0.08 µM) came out at 0.81; with AZ505 + Foretinib (first compound 0.253 µM) it was 1.05; with AZ505 + Foretinib (first compound 0.8 µM), 0.924; with AZ505 + Foretinib (first compound 2.53 µM) it was 0.872; in the test with AZ505 + Foretinib (first compound 8 µM), 1.19; with AZ505 + Decitabine (first compound 0.253 µM) it was 0.607. Besides, the relative viability with AZ505 + Decitabine (first compound 0.8 µM) worked out at 0.583; with AZ505 + Decitabine (first compound 2.53 µM), 0.6; with AZ505 + Decitabine (first compound 8 µM) it was 0.925; with Dactolisib + Decitabine (first compound 0.002 µM), 0.671; with Dactolisib + Decitabine (first compound 0.006325 µM), 0.614; with Dactolisib + Decitabine (first compound 0.02 µM), 0.559. Besides, the relative viability in the test with Dactolisib + Decitabine (first compound 0.06325 µM) worked out at 0.511; in the test with Dactolisib + Decitabine (first compound 0.2 µM), 0.415; in the test with Dactolisib + Navitoclax (first compound 0.002 µM), 0.724; with Dactolisib + Navitoclax (first compound 0.006325 µM), 0.488; with Dactolisib + Navitoclax (first compound 0.02 µM) it was 0.426; with Dactolisib + Navitoclax (first compound 0.06325 µM), 0.458. In addition, the relative viability with Dactolisib + Navitoclax (first compound 0.2 µM) worked out at 0.176.

Take SK-MES-1: the relative viability is 0.765 in the test with AZ505 + Foretinib (first compound 0.08 µM); 0.774 with AZ505 + Foretinib (first compound 0.253 µM); 0.824 with AZ505 + Foretinib (first compound 0.8 µM); 0.782 with AZ505 + Foretinib (first compound 2.53 µM); 0.738 with AZ505 + Foretinib (first compound 8 µM); 0.369 with AZ505 + Decitabine (first compound 0.08 µM). The relative viability in the test with AZ505 + Decitabine (first compound 0.253 µM) was 0.409; in the test with AZ505 + Decitabine (first compound 0.8 µM) it was 0.392; with AZ505 + Decitabine (first compound 2.53 µM) it was 0.412; with AZ505 + Decitabine (first compound 8 µM), 0.439; with Dactolisib + Decitabine (first compound 0.002 µM), 0.43; in the test with Dactolisib + Decitabine (first compound 0.006325 µM), 0.362. Moreover, the relative viability is 0.369 with Dactolisib + Decitabine (first compound 0.02 µM); 0.251 with Dactolisib + Decitabine (first compound 0.06325 µM); 0.231 in the test with Dactolisib + Decitabine (first compound 0.2 µM); 1.34 with Dactolisib + Navitoclax (first compound 0.002 µM); 1.17 with Dactolisib + Navitoclax (first compound 0.006325 µM); 1.1 with Dactolisib + Navitoclax (first compound 0.02 µM). Moreover, the relative viability with Dactolisib + Navitoclax (first compound 0.06325 µM) came out at 0.574; with Dactolisib + Navitoclax (first compound 0.2 µM) it was 0.55.

On to NCI-H1650, for which the relative viability in the test with AZ505 + Foretinib (first compound 0.08 µM) was determined as 0.965; with AZ505 + Foretinib (first compound 0.253 µM), 1.05; with AZ505 + Foretinib (first compound 0.8 µM), 1.34; in the test with AZ505 + Foretinib (first compound 2.53 µM), 0.865; in the test with AZ505 + Foretinib (first compound 8 µM), 1.24; in the test with AZ505 + Decitabine (first compound 0.08 µM), 0.367. Further, the relative viability was 0.405 with AZ505 + Decitabine (first compound 0.253 µM); 0.502 with AZ505 + Decitabine (first compound 0.8 µM); 0.368 in the test with AZ505 + Decitabine (first compound 2.53 µM); 0.427 in the test with AZ505 + Decitabine (first compound 8 µM); 0.591 with Dactolisib + Decitabine (first compound 0.002 µM); 0.367 with Dactolisib + Decitabine (first compound 0.006325 µM). Moreover, the relative viability is 0.37 in the test with Dactolisib + Decitabine (first compound 0.02 µM); 0.294 with Dactolisib + Decitabine (first compound 0.06325 µM); 0.315 with Dactolisib + Decitabine (first compound 0.2 µM); 1.18 with Dactolisib + Navitoclax (first compound 0.002 µM); 0.998 with Dactolisib + Navitoclax (first compound 0.006325 µM); 0.83 with Dactolisib + Navitoclax (first compound 0.02 µM). The relative viability came out at 0.337 with Dactolisib + Navitoclax (first compound 0.06325 µM) and 0.416 with Dactolisib + Navitoclax (first compound 0.2 µM).

Turning to NCI-H2087, the relative viability with AZ505 + Foretinib (first compound 0.08 µM) is 1.12; in the test with AZ505 + Foretinib (first compound 0.253 µM) it was 1.02; with AZ505 + Foretinib (first compound 0.8 µM), 0.997; with AZ505 + Foretinib (first compound 2.53 µM) it was 1.14; in the test with AZ505 + Foretinib (first compound 8 µM) it was 1.21; in the test with AZ505 + Decitabine (first compound 0.08 µM) it was 0.224. The relative viability with AZ505 + Decitabine (first compound 0.253 µM) turned out to be 0.254; in the test with AZ505 + Decitabine (first compound 0.8 µM), 0.275; in the test with AZ505 + Decitabine (first compound 2.53 µM), 0.289; with AZ505 + Decitabine (first compound 8 µM), 0.277; in the test with Dactolisib + Decitabine (first compound 0.002 µM), 0.314; in the test with Dactolisib + Decitabine (first compound 0.006325 µM), 0.265. Besides, the relative viability with Dactolisib + Decitabine (first compound 0.02 µM) came to 0.249; with Dactolisib + Decitabine (first compound 0.06325 µM), 0.205; with Dactolisib + Decitabine (first compound 0.2 µM), 0.133; in the test with Dactolisib + Navitoclax (first compound 0.002 µM), 0.986; with Dactolisib + Navitoclax (first compound 0.006325 µM), 0.907; in the test with Dactolisib + Navitoclax (first compound 0.02 µM), 1.02. Also, the relative viability with Dactolisib + Navitoclax (first compound 0.06325 µM) turned out to be 0.481; in the test with Dactolisib + Navitoclax (first compound 0.2 µM), 0.429.
